Reference: publication PMC10224356, “Trisubstituted 1,3,5-Triazines as Histamine H4 Receptor Antagonists with Promising Activity In Vivo” (Molecules, 2023)
“Also recorded” adds a separate entry of the source.

How the values were obtained:
HepG2 cells = assay: Toxicity evaluation, MTS assay in HepG2 cells; assay type: cell-based, human
Excerpt: Toxic substances can affect the cells. Early in the research process, it is crucial to determine whether obtained compounds can induce such effects. From our series of compounds, compound 6 was selected for toxicity evaluation. MTS assay was used to test toxicity on HepG2 and SH-SY5Y cell lines. HepG2 cells closely reflect the human liver cell model whereas SH-SY5Y neuroblastoma cells are used in models of neurodegenerative diseases (especially Parkinson’s disease) to study the cellular and molecular factors that lead to these disorders.
Compound 6, at concentrations ranging from 0.78 µM to 50 µM, was incubated with the respective cell lines for 48 h (HepG2) or 24 h (SH-SY5Y). Then, MTS reagent was added and absorbances at 490 nm were read after 1 h. […] The reduction in SH-SY5Y cell viability (Figure 6B) of an average of 4–12% was observed over the range of concentrations.
The hepatoma cell line HepG2 (ATCC® HB-8065TM) and SH-SY5Y CRL-2266 neuroblastoma cell line were used to evaluate the toxicity of tested compounds. Tests were conducted as described previously. CellTiter 96® Aqueous Non-Radioactive Cell Proliferation Assay was purchased from Promega (Madison, WI, USA). Compounds were tested at 7 concentrations (0.78, 1.56, 3.125, 6.25, 12.5, 25 and 50 µM). Cell viability was determined after incubation with compounds for […]. […]

[1] = PAMPA assay (blood-brain barrier permeability); assay type: in vitro ADME
Experimental: This test is a popular method for estimating the possibility of crossing BBB through passive transport. […] Caffeine was used as a standard well-permeable compound.
The Gentest^TM PAMPA Plate System, purchased from Corning (Tewksbury, MA, USA), was used for permeability evaluation. Caffeine (a reference) and the compound tested were dissolved in DMSO (10 mM stocks) and after dilution to 200 μM in PBS (pH 7.4), added to donor wells. Then, after incubation for 5 h at room temperature, concentrations of tested compounds in donor and acceptor wells were estimated by the mass spectra (LC/MS) method as described previously. The UPLC/MS Waters […] TQD system with the TQ Detector (Waters, Milford, CT, USA) was used for this detection. The assay was performed in triplicate. The permeability value (Pe) was calculated using the formula described by Chen et al..

[2] = target: T1, human histamine H4 receptor (Homo sapiens, UniProt Q9H3N8); assay: [3H]histamine displacement assay, membranes of Sf9 cells expressing hH4R with Gαi2 and Gβ1γ2; assay type: binding; details: Sf9 membranes, mean within 95% CI
T1 construct: made in house; host or cells: Sf9 cells (membrane preparations)
Experimental: The affinity of compounds 2–20 for hH4R was evaluated in a binding assay as previously described. [^3H]Histamine was used as a radioligand and hH4R was expressed in Sf9 cells with G protein Gαi2 and Gβ1γ2 subunits. The pharmacological results represented as Ki values are listed in Table 1 (for alicyclic derivatives) and Table 2 (for aliphatic derivatives). […] Results depended on the substituent in the four positions of a triazine (a main structure).
Affinities of all triazine derivatives were determined in a [^3H] histamine (f.c. 10 nM) displacement assay using membrane preparations from Sf9 cells expressing human H4R and co-expressed with Gαi2 and Gβ1γ2 subunits as described previously. Nonspecific binding was determined in the presence of unlabelled JNJ7777120 ([…]).

T1 sequence (Q9H3N8 whole entry): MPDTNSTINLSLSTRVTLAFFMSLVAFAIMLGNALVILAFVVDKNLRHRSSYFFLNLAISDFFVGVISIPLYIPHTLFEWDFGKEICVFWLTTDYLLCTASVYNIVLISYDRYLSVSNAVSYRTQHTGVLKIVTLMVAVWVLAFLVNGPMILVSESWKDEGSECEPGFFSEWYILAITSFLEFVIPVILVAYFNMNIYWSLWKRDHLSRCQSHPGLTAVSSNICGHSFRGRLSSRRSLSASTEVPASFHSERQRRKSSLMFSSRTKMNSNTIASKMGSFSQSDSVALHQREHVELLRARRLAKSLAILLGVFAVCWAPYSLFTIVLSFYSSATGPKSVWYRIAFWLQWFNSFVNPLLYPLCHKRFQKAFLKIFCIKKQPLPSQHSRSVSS

## CN1CCN(c2nc(N)nc(CC3CCCC3)n2)CC1 [Compound 6, 4-(Cyclopentylmethyl)-6-(4-methylpiperazin-1-yl)-1,3,5-triazin-2-amine]
HepG2 cells; 0.78–50 µM, 48 h incubation
  Toxicity in HepG2 cells (MTS): no toxicity up to 50 µM; also recorded: did not show significant toxicity in the tested concentration range (except for 6.25 µM concentration)
HepG2 cells; even at the highest concentration (50 µM)
  Reduction of HepG2 cell viability: ≤ 50%
[1]; 200 µM, 5 h
  Mass Retention (R): 3.15%
[1]; PBS pH 7.4, permeable if Pe > 1.5 × 10^−6 cm/s, read-out: Pe (permeability coefficient) ± SD
  Papp at 5 h, 200 µM: 123 ± 3.1 nm/s
other
  melting point: 165 to 168 °C
[2]
  Ki: 0.063 µM
